Reference: EP0842933B1, “NOVEL NAPHTHYRIDINE DERIVATIVES” (SUMITOMO PHARMACEUTICALS COMPANY, LIMITED, priority 1995, dated 1996)

Assays:
[1] = test system: ACAT; assay: Assay of ACAT inhibitory activity in a specimen prepared from rabbit liver; format: biochemical, New Zealand white rabbit; conditions: enzyme specimen from liver of cholesterol-fed rabbit, [1-^14C]oleoyl-CoA and endogenous cholesterol
Description: 1. Assay of ACAT inhibitory activity in a specimen prepared from rabbit liver
An enzyme specimen ACAT was prepared according to the method disclosed in the literature: J. Lipid. Research, 30, 681-690, 1989, from the liver of New Zealand white rabbit which had been fed with 1 % cholesterol feed for one month. The ACAT activity was determined according to the method disclosed in the literature: J. Lipid Research. 24, 1127-1134, 1983, i.e., using radioactive [1-^14C]oleoyl-CoA and endogenous cholesterol contained in the liver microsome, and calculated from the radioactivity of the labeled cholesterol oleate.

[2] = target: T1, ACAT (Rattus norvegicus, UniProt O70536); assay: Assay of ACAT inhibitory activity in the macrophage derived from rat peritoneal; format: cell-based; conditions: 10^-6 M, radioactive oleic acid and exogenous cholesterol in liposome, read-out: ACAT inhibitory rate (%) 10^-6 M
T1 construct: endogenous in cells; host or cells: rat peritoneal macrophages (primary cells)
T1 sequence (O70536 1-545): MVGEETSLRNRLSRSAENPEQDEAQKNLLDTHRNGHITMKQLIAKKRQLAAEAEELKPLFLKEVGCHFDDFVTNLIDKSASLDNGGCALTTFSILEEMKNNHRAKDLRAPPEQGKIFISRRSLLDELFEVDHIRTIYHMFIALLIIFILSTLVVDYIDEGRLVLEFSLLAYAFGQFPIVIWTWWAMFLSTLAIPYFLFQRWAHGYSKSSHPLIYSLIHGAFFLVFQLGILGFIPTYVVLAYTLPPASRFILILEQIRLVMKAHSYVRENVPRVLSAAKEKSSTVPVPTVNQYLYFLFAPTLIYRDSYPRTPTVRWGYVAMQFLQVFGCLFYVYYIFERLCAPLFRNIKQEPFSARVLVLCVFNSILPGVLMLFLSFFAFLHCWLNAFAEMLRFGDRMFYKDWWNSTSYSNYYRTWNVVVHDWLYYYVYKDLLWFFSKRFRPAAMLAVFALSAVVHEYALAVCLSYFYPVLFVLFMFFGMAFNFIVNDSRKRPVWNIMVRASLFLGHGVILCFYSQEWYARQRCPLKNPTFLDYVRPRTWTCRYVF
Description: 2. Assay of ACAT inhibitory activity in the macrophage derived from rat peritoneal
The rat peritoneal-derived macrophage was prepared according to the method disclosed in the literature: Biochimica et Biophysica Acta, 1126, 73-80, 1992. The ACAT activity was determined by a modified method of the method disclosed in the above literature: Biochimica et Biophysica Acta, 1126, 73-80, 1992, i.e., using radioactive [9,10-H]oleic acid and exogenous cholesterol contained in the liposome which was re-constituted according to the method disclosed in the literature: Biochimica Biophysica Acta, 1213, 127-134, 1994, and calculated from the labeled cholesterolyl oleate.

CC(C)c1cccc(C(C)C)c1NC(=O)Nc1c(-c2ccccc2Cl)c2cccnc2n(C)c1=O [Example 4, N-[1-methyl-4-(2-chlorophenyl)-1,2-dihydro-2-oxo-1,8-naphthyridin-3-yl]-N'-(2,6-diisopropylphenyl)urea]
ACAT inhibitory rate (%) 10^-6 M [1]: 87%
inhibition at 1 µM [2]: 88%

CC(C)c1cccc(C(C)C)c1NC(=O)Nc1c(-c2ccccc2Cl)c2ccncc2n(C)c1=O [Example 6, N-[1-methyl-4-(2-chlorophenyl)-1,2-dihydro-2-oxo-1,7-naphthyridin-3-yl]-N'-(2,6-diisopropylphenyl)urea]
ACAT inhibitory rate (%) 10^-6 M [1]: 82%

COc1cccc(-c2c(NC(=O)Nc3c(C(C)C)cccc3C(C)C)c(=O)n(C)c3ncccc23)c1 [Example 7, N-[1-methyl-4-(3-methoxyphenyl)-1,2-dihydro-2-oxo-1,8-naphthyridin-3-yl]-N'-(2,6-diisopropylphenyl)urea]
inhibition at 1 µM [2]: 94%
